In patent US9624215B2, “Amine derivative or salt thereof” (TOYAMA CHEMICAL CO., LTD., priority 2012, dated 2017):

Test system: normal human neonatal foreskin epidermal keratinocytes (NHEK-F)
Test: Cell proliferation inhibition test
Format: cell-based
Conditions: Keratinocyte, 72 h, NHEK-F cells, three days incubation, ATPlite or CellTiterGlo, read-out: IC50 (concentration of the compound at which the cell count is reduced by 50%)
How it was run: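 IC50 is the compound level halving cell count relative to untreated wells, with counts from ATP-based luminescence (ATPlite or CellTiterGlo). Readout followed 3 days of compound exposure of overnight-attached neonatal foreskin keratinocytes (2×10^3/well, Humedia-EG2 medium).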

SMILES	IC50 [µM]
Cc1ccc(-n2ccc3cc(Nc4ccc(Cl)cc4C(=O)O)ccc32)nn1 [Example 100, 5-chloro-2-((1-(6-methylpyridazin-3-yl)-1H-indol-5-yl)amino)benzoic acid]	0.1 to 1
COC/C=C/c1cc(Nc2ncc(C3CC3)cc2C(=O)O)cc2ccn(C)c12 [Example 467, (E)-5-cyclopropyl-2-((7-(3-methoxyprop-1-en-1-yl)-1-methyl-1H-indol-5-yl)amino)nicotinic acid]	0.01 to 0.1
O=C(O)c1cc(C2CC2)cnc1Nc1ccc2c(ccn2Cc2cccnc2)c1 [Example 137, 5-cyclopropyl-2-((1-(pyridin-3-ylmethyl)-1H-indol-5-yl)amino)nicotinic acid]	0.01 to 0.1
Cn1ccc2cc(Nc3ncc(C4CC4)cc3C(=O)O)cc(-c3cccc(C(F)(F)F)c3)c21 [Example 480]	≤ 0.01
Cc1c(Nc2ncc(C3CC3)cc2C(=O)O)ccc2c1ccn2Cc1ccccc1 [Example 573]	≤ 0.01
O=C(O)c1cc(C2CC2)cnc1Nc1cccc2c1ccn2CC1CCCCO1 (centres unmarked) [Example 423, 5-cyclopropyl-2-((1-((tetrahydro-2H-pyran-2-yl)methyl)-1H-indol-4-yl)amino)nicotinic acid]	0.01 to 0.1
O=C(O)c1cc(Cl)ccc1Nc1ccc2c(ccn2Cc2cccc(OCc3ccc4ccccc4n3)c2)c1 [Example 249, 5-chloro-2-((1-(3-(quinolin-2-ylmethoxy)benzyl)-1H-indol-5-yl)amino)benzoic acid]	≤ 0.01
O=C(O)c1cc(C2CC2)cnc1Nc1ccc2c(ccn2Cc2cc(F)c(F)cc2F)c1 [Example 643, 5-cyclopropyl-2-((1-(2,4,5-trifluorobenzyl)-1H-indol-5-yl)amino)nicotinic acid]	≤ 0.01
O=C(O)c1cc(C2CC2)cnc1Nc1ccc2c(ccn2C(=O)c2ccccc2)c1 [Example 575, 2-((1-benzoyl-1H-indol-5-yl)amino)-5-cyclopropylnicotinic acid]	0.01 to 0.1
O=C(O)c1cc(C2CC2)cnc1Nc1ccc2c(c1)cc(-c1ccccc1)n2Cc1ccccc1 [Example 387, 2-((1-benzyl-2-phenyl-1H-indol-5-yl)amino)-5-cyclopropylnicotinic acid]	0.01 to 0.1
O=C(O)c1cc(Cl)ccc1Nc1ccc2ccn(Cc3ccccc3)c2c1 [Example 4, 2-((1-benzyl-1H-indol-6-yl)amino)-5-chlorobenzoic acid]	0.1 to 1
O=C(O)c1cc(C2CC2)cnc1Nc1ccc2c(c1)OCC(=O)N2c1ccccc1 [Example 399, 5-cyclopropyl-2-((3-oxo-4-phenyl-3,4-dihydro-2H-benzo[b][1,4]oxazin-7-yl)amino)nicotinic acid]	0.1 to 1
O=C(O)c1cc(C2CC2)cnc1Nc1cc(-c2ccccc2)c2[nH]ccc2c1 [Example 227, 5-cyclopropyl-2-((7-phenyl-1H-indol-5-yl)amino)nicotinic acid]	0.01 to 0.1
O=C(O)c1cc(Cl)ccc1Nc1ccc2c(ccn2Cc2ccccn2)c1 [Example 341, 5-chloro-2-((1-(pyridin-2-ylmethyl)-1H-indol-5-yl)amino)benzoic acid]	0.01 to 0.1
COc1ccc(Cn2ccc3cc(Nc4ccc(Cl)cc4C(=O)O)ccc32)cc1 [Example 347, 5-chloro-2-((1-(4-methoxybenzyl)-1H-indol-5-yl)amino)benzoic acid]	0.01 to 0.1
Cn1cc(-c2cccc(F)c2)c2cc(Nc3ncc(C4CC4)cc3C(=O)O)ccc21 [Example 559, 5-Cyclopropyl-2-((3-(3-fluorophenyl)-1-methyl-1H-indol-5-yl)amino)nicotinic acid]	0.01 to 0.1

SMILES	IC50 [µM]
O=C(O)c1cc(C2CC2)cnc1Nc1ccc2c(ccn2CC2CCCCO2)c1 (centres unmarked) [Example 414, 5-cyclopropyl-2-((1-((tetrahydro-2H-pyran-2-yl)methyl)-1H-indol-5-yl)amino)nicotinic acid]	0.01 to 0.1
O=C(O)c1cc(C2CC2)ccc1Nc1cccc2c1ccc(=O)n2-c1ccccc1 [Example 539, 5-cyclopropyl-2-((2-oxo-1-phenyl-1,2-dihydroquinolin-5-yl)amino)benzoic acid]	≤ 0.01
O=C(O)c1cc(C2CC2)cnc1Nc1ccc2c(ccn2CC2CC2)c1 [Example 146, 5-cyclopropyl-2-((1-(cyclopropylmethyl)-1H-indol-5-yl)amino)nicotinic acid]	0.01 to 0.1
CCn1cc(-c2ccccc2)c2cc(Nc3ncc(C4CC4)cc3C(=O)O)ccc21 [Example 170, 5-cyclopropyl-2-((1-ethyl-3-phenyl-1H-indol-5-yl)amino)nicotinic acid]	0.01 to 0.1
COCCOc1cccc(Cn2ccc3cc(Nc4ncc(C5CC5)cc4C(=O)O)ccc32)c1 [Example 506, 5-cyclopropyl-2-((1-(3-(2-methoxyethoxyl)benzyl)-1H-indol-5-yl)amino)nicotinic acid]	≤ 0.01
O=C(O)c1cc(C2CC2)cnc1Nc1ccc2cccc(-c3ccccc3)c2c1 [Example 179, 5-cyclopropyl-2-((8-phenylnaphthalen-2-yl)amino)nicotinic acid]	≤ 0.01
CCCCCn1ccc2cc(Nc3ncc(C4CC4)cc3C(=O)O)cc(CCCOC)c21 [Example 610, 5-cyclopropyl-2-((7-(3-methoxypropyl)-1-pentyl-1H-indol-5-yl)amino)nicotinic acid]	≤ 0.01
COCCNc1cccc(Cn2ccc3cc(Nc4ncc(C5CC5)cc4C(=O)O)ccc32)c1 [Example 510, 5-cyclopropyl-2-((1-(3-((2-methoxyethyl)amino)benzyl)-1H-indol-5-yl)amino)nicotinic acid]	≤ 0.01
O=C(O)c1cc(C2CC2)cnc1Nc1ccc2ccn(-c3ccccc3)c2c1 [Example 525, 5-cyclopropyl-2-((1-phenyl-1H-indol-6-yl)amino)nicotinic acid]	≤ 0.01
Cn1cc(C2CCCCC2)c2cc(Nc3ncc(C4CC4)cc3C(=O)O)ccc21 [Example 612, 2-((3-cyclohexyl-1-methyl-1H-indol-5-yl)amino)-5-cyclopropylnicotinic acid]	0.01 to 0.1
O=C(O)c1cc(Br)cnc1Nc1ccc2c(ccn2Cc2cccc(F)c2)c1 [Example 627, 5-bromo-2-((1-(3-fluorobenzyl)-1H-indol-5-yl)amino)nicotinic acid]	0.01 to 0.1
CCCCCCCn1ccc2cc(Nc3ncc(C4CC4)cc3C(=O)O)ccc21 [Example 640, 5-cyclopropyl-2-((1-heptyl-1H-indol-5-yl)amino)nicotinic acid]	0.01 to 0.1
O=C(O)c1cc(C2CC2)cnc1Nc1ccc2c(-c3ccccc3)cn(CC3CC3)c2c1 [Example 45, 5-cyclopropyl-2-((1-(cyclopropylmethyl)-3-phenyl-1H-indol-6-yl)amino)nicotinic acid]	0.01 to 0.1
O=C(O)c1cc(C2CC2)cnc1Nc1ccc2c(ccn2Cc2cc(C(F)(F)F)cc(C(F)(F)F)c2)c1 [Example 499, 2-((1-(3,5-bis(trifluoromethyl)benzyl)-1H-indol-5-yl)amino)-5-cyclopropylnicotinic acid]	≤ 0.01
O=C(O)c1cc(Cl)ccc1Nc1ccc2c(ccn2-c2ccncc2)c1 [Example 315, 5-chloro-2-((1-(pyridin-4-yl)-1H-indol-5-yl)amino)benzoic acid]	0.01 to 0.1
Cn1ccc2cc(Nc3ncc(C4CC4)cc3C(=O)O)cc(/C=C/C3CC3)c21 [Example 469, (E)-5-cyclopropyl-2-((7-(2-cyclopropylvinyl)-1-methyl-1H-indol-5-yl)amino)nicotinic acid]	≤ 0.01
